{"source": "patent US7354949B2", "about": "“Therapeutic agent for bladder irritative symptoms associated with benign prostatic hyperplasia” (Kyowa Hakko Kogyo Co., Ltd., priority 2001, dated 2008)", "key": {"[1]": {"test_system": "rats with partial urethral obstruction", "test": "Activity to increase the bladder capacity of rats with partial urethral obstruction (intravesical saline infusion)", "type": "in vivo, rat", "settings": "summary of Test Example 2", "procedure": "(§1) The experiment was carried out according to the method of Saito, et al. [J. Urol., Vol. 150, pp. 1045-1051 (1993)].\n(§2) Male SD rats of 8 to 9 weeks of age (supplied by Japan SLC) were used in the test. Five to seven rats were put in each metal cage and reared by allowing them to freely take commercially available chow and water, in an animal room at a room temperature between 19 and 25° C. and humidity between 30 and 70% under illumination for 12 hours (from 7:00 a.m. to 7:00 p.m.) per day.\nThe rats were subjected to operation of partial urethral obstruction. […]\nFive to seven days after the operation of the partial urethral obstruction and the catheter implantation, the rats with partial urethral obstruction and the sham-operated rats were put in Bollman cages (KN-326-1, Natsume Seisakusho Co., Ltd.) under restraint. […] One end of the cock was connected to a pressure transducer (DX-360, Nihon Kohden Corp.), and the intravesical pressure signal was amplified via a strain pressure amplifier (AP-601G, Nihon Kohden Corp.), measured with a polygraph (RMP-6008, Nihon Kohden Corp.) and recorded on a thermal array recorder (RTA-1200, Nihon Kohden Corp.). […] The bladder capacity was calculated from the period of time until occurrence of micturition (infusion rate 6 ml/h×infusion time). […]"}, "dd male mice": {"test_system": "dd male mice", "test": "Acute toxicity test", "type": "in vivo", "settings": "oral administration, mortality on the seventh day", "procedure": "The test compound was administered orally or intraperitoneally to animals per group of dd male mice (body weight: 20±1 g). The minimum lethal dose (MLD) value was obtained by observing mortality on the seventh day after the administration."}, "[2]": {"test_system": "rats with partial urethral obstruction", "test": "Inhibitory activity on urinary frequency due to partial urethral obstruction (micturition test in metabolic cages)", "type": "in vivo, rat", "procedure": "as §1\nas §2, with “seven animals of these” for “seven”, “at” for “at a”\nThe rats were subjected to operation of partial urethral obstruction. Each rat was anesthetized by intraperitoneal administration of 50 mg/kg pentobarbital sodium (Dainippon Pharmaceutical Co., Ltd.) and placed in the supine position. The abdominal midline incision was made in a length of about 1 cm to expose the bladder, prostate and the urethra. After the bladder neck and base were peeled from the prostate, two surgical suture threads (No. 3, Natsume Seisakusho Co., Ltd.) were passed behind the urethral base. A polyethylene tube (PE-200, Nippon Becton Dickinson Co., Ltd.) was placed along the urethra, and the urethra was loosely double-ligated together with the tube. The ligation was made in such a manner that the urethra was not pressed with the polyethylene tube and the suture was not slack. Then, the polyethylene tube was pulled out and the urethra was partially obstructed. The incised part of abdomen was sutured with a surgical thread.\nFive to seven days after the partial urethral obstruction operation, the rats with partial urethral obstruction and the sham-operated rats were put in metabolic cages (KN-649, Natsume Seisakusho Co., Ltd.). For acclimation, the rats were reared for one day with free drinking and feeding, and the micturition test was started the following day. The amount of urination in the rats was continuously measured as the weight using an electronic balance (HF-200, A & D Company Ltd.), and was recorded on a thermal array recorder (RTA-1200, Nihon Kohden Corp.) via a direct current amplifier (AD-601G, Nihon Kohden Corp.). The data were collected during the light period under illumination (9:00-18:00) and the dark period without illumination (19:00-4:00), and the number of micturitions and the micturition volume in each period were measured to calculate the urinary frequency (the number of micturitions per 9 hours), the voided volume per micturition and the total urine volume as the measurement parameters. The voided volume per micturition was calculated by dividing the total urine volume per 9 hours by the urinary frequency per 9 hours. On the next day, a test compound or a vehicle (0.5 w/v% aqueous methylcellulose 400 cP solution) was orally administered twice (between 8:00 and 9:00, and between 18:00 and 19:00). The number of micturitions and the urine volume were measured from 9:00 to 18:00 and from 19:00 to 4:00 in the same manner as on the previous day to obtain the measurement values. The changes in the values of each parameter induced by the administration of the compound were also calculated. In the sham-operated group, the urinary frequency, the voided volume per micturition and the total urine volume obtained on the first day of the micturition test were compared with those in the groups of partial urethral obstruction. The average±standard error of the urinary frequency, voided volume per micturition and the total urine volume was calculated for each group."}, "[3]": {"settings": "Dark period (Active period), after oral administration"}, "[4]": {"settings": "Dark period (Active period), before administration"}, "[5]": {"settings": "Light period (Inactive period), after oral administration"}, "[6]": {"settings": "Light period (Inactive period), before administration"}}}
{"molecule": "C[C@](O)(C(=O)Nc1cccc2c1C(=O)c1sccc1CS2(=O)=O)C(F)(F)F", "note": "[Compound 1, (S)-(+)-N-(5,5-dioxido-10-oxo-4,10-dihydrothieno[3,2-c][1]benzothiepin-9-y1)-3,3,3-trifluoro-2-hydroxy-2-methylpropanamide]", "values": [{"measurement": "effect on bladder capacity (in words)", "setting": "[1]", "result": "tended to increase"}, {"measurement": "effect on micturition volume (in words)", "setting": "[1]", "result": "significantly increased"}, {"measurement": "minimum lethal dose (MLD)", "setting": "dd male mice", "result": "> 1000", "unit": "mg/kg"}, {"measurement": "Total urine volume", "setting": "[2]; [3]", "result": "4.83 ± 0.83", "unit": "mL/9 hours"}, {"measurement": "Urinary frequency", "setting": "[2]; [3]", "result": "6.7 ± 1.2", "unit": "micturitions/9 hours"}, {"measurement": "Total urine volume", "setting": "[2]; [4]", "result": "3.57 ± 0.57", "unit": "mL/9 hours"}, {"measurement": "Urinary frequency", "setting": "[2]; [4]", "result": "10.0 ± 1.3", "unit": "micturitions/9 hours"}, {"measurement": "Total urine volume", "setting": "[2]; [5]", "result": "4.76 ± 0.78", "unit": "mL/9 hours"}, {"measurement": "Urinary frequency", "setting": "[2]; [5]", "result": "5.3 ± 0.4", "unit": "micturitions/9 hours"}, {"measurement": "Total urine volume", "setting": "[2]; [6]", "result": "4.80 ± 0.31", "unit": "mL/9 hours"}, {"measurement": "Urinary frequency", "setting": "[2]; [6]", "result": "8.7 ± 0.8", "unit": "micturitions/9 hours"}, {"measurement": "effect on urinary frequency (in words)", "setting": "[2]; summary of Test Example 1", "result": "significantly decreased"}, {"measurement": "effect on voided volume per micturition (in words)", "setting": "[2]; summary of Test Example 1", "result": "tended to increase"}]}
